{"source": "ChEMBL document CHEMBL3621173", "about": "“Evaluation of functional groups as acetyl-lysine mimetics for BET bromodomain inhibition” (Medchemcomm, 2014)", "note": "Activity calls are given as the source filed them. No cut-off for these calls is given here."}
{"target": "Bromodomain-containing protein 4 (Homo sapiens, UniProt O60885)", "assay": "Inhibition of BRD4 (D1) (unknown origin) at 5 uM incubated for 30 mins using histone H4 peptide (1-21) K5/8/12/16Ac-biotin by alpha screen assay", "conditions": "not given"}
{"smiles": "COc1ccc(-c2ccsc2)cc1S(=O)(=O)NC1CCCC1", "inhibition": "inactive"}
{"smiles": "CC(=O)Nc1ccc(C)c(S(=O)(=O)NC2CCCC2)c1", "inhibition": "inactive"}
{"smiles": "COc1ccc(-c2cccnc2)cc1S(=O)(=O)NC1CCCC1", "inhibition": "inactive"}
{"smiles": "Cc1ccc(NS(C)(=O)=O)cc1S(=O)(=O)NC1CCCC1", "inhibition": "inactive"}
{"smiles": "COc1ccc(-c2ccncc2)cc1S(=O)(=O)NC1CCCC1", "inhibition": "inactive"}
{"smiles": "COc1ccc(-c2cccc(NC(C)=O)c2)cc1S(=O)(=O)NC1CCCC1", "inhibition": "inactive"}
{"smiles": "COc1ccc(-c2ccc(N)nc2)cc1S(=O)(=O)NC1CCCC1", "inhibition": "inactive"}
{"smiles": "Cc1ccc(-c2nnn(C)n2)cc1S(=O)(=O)NC1CCCC1", "inhibition": "inactive"}
{"smiles": "COc1ccc(-c2ccsc2C)cc1S(=O)(=O)NC1CCCC1", "inhibition": "inactive"}
{"smiles": "COc1ccc(-c2c(C)nn(C)c2C)cc1S(=O)(=O)NC1CCCC1", "inhibition": "inactive"}
{"smiles": "COc1ccc(-c2ccc(N)cc2C)cc1S(=O)(=O)NC1CCCC1", "inhibition": "inactive"}
{"smiles": "Cc1ccc(-c2nnnn2C)cc1S(=O)(=O)NC1CCCC1", "inhibition": "inactive"}
{"smiles": "CC(=O)NCc1ccc(C)c(S(=O)(=O)NC2CCCC2)c1", "inhibition": "inactive"}
{"smiles": "COc1ccc(-c2cn[nH]c2)cc1S(=O)(=O)NC1CCCC1", "inhibition": "inactive"}
{"smiles": "COc1ccc(-c2cn(C)nn2)cc1S(=O)(=O)NC1CCCC1", "inhibition": "inactive"}
{"smiles": "COc1ccc(-c2ccccc2NS(C)(=O)=O)cc1S(=O)(=O)NC1CCCC1", "inhibition": "inactive"}
{"target": "Bromodomain-containing protein 3 (Homo sapiens, UniProt Q15059)", "sequence (Q15059 2-726 limits assumed)": "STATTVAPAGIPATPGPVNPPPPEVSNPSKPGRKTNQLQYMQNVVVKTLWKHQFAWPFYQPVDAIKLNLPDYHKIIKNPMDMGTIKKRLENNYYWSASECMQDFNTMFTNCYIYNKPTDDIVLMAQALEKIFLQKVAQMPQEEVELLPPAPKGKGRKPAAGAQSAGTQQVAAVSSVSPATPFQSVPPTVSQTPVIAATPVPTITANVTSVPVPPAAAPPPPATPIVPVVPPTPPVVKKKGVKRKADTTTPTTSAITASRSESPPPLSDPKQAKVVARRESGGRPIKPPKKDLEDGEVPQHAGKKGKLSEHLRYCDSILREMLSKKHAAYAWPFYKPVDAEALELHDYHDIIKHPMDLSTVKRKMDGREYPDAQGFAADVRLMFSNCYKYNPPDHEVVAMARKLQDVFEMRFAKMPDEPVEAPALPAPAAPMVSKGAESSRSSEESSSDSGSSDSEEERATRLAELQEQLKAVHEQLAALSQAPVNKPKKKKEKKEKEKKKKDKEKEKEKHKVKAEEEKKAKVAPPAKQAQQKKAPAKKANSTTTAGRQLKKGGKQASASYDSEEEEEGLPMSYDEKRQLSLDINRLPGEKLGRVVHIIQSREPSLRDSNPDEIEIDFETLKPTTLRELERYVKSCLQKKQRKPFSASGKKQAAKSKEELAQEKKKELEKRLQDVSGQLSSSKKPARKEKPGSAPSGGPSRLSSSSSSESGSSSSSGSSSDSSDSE", "assay": "Inhibition of BRD3 (D1) (unknown origin) at 5 uM incubated for 30 mins using histone H4 peptide (1-21) K5/8/12/16Ac-biotin by alpha screen assay", "conditions": "not given"}
{"smiles": "COc1ccc(-c2ccsc2)cc1S(=O)(=O)NC1CCCC1", "inhibition": "inactive"}
{"smiles": "CC(=O)Nc1ccc(C)c(S(=O)(=O)NC2CCCC2)c1", "inhibition": "inactive"}
{"smiles": "COc1ccc(-c2cccnc2)cc1S(=O)(=O)NC1CCCC1", "inhibition": "inactive"}
{"smiles": "Cc1ccc(NS(C)(=O)=O)cc1S(=O)(=O)NC1CCCC1", "inhibition": "inactive"}
{"smiles": "COc1ccc(-c2ccncc2)cc1S(=O)(=O)NC1CCCC1", "inhibition": "inactive"}
{"smiles": "COc1ccc(-c2cccc(NC(C)=O)c2)cc1S(=O)(=O)NC1CCCC1", "inhibition": "inactive"}
{"smiles": "COc1ccc(-c2ccc(N)nc2)cc1S(=O)(=O)NC1CCCC1", "inhibition": "inactive"}
{"smiles": "Cc1ccc(-c2nnn(C)n2)cc1S(=O)(=O)NC1CCCC1", "inhibition": "inactive"}
{"smiles": "COc1ccc(-c2ccsc2C)cc1S(=O)(=O)NC1CCCC1", "inhibition": "inactive"}
{"smiles": "COc1ccc(-c2c(C)nn(C)c2C)cc1S(=O)(=O)NC1CCCC1", "inhibition": "inactive"}
{"smiles": "COc1ccc(-c2ccc(N)cc2C)cc1S(=O)(=O)NC1CCCC1", "inhibition": "inactive"}
{"smiles": "Cc1ccc(-c2nnnn2C)cc1S(=O)(=O)NC1CCCC1", "inhibition": "inactive"}
{"smiles": "CC(=O)NCc1ccc(C)c(S(=O)(=O)NC2CCCC2)c1", "inhibition": "inactive"}
{"smiles": "COc1ccc(-c2cn[nH]c2)cc1S(=O)(=O)NC1CCCC1", "inhibition": "inactive"}
{"smiles": "COc1ccc(-c2cn(C)nn2)cc1S(=O)(=O)NC1CCCC1", "inhibition": "inactive"}
{"smiles": "COc1ccc(-c2ccccc2NS(C)(=O)=O)cc1S(=O)(=O)NC1CCCC1", "inhibition": "inactive"}
{"system": "not listed separately", "assay": "Intrinsic clearance in human liver microsomes", "assay_type": "ADME", "conditions": "read-out: CLH", "units": {"microsomal CLint": "µL/min/mg"}}
{"smiles": "Cc1sc2c(c1C)C(c1ccc(Cl)cc1)=N[C@@H](CC(=O)OC(C)(C)C)c1nnc(C)n1-2", "microsomal CLint": 136}
{"target": "Bromodomain-containing protein 2 (Homo sapiens) (UniProt P25440)", "sequence (P25440 whole entry, looked up)": "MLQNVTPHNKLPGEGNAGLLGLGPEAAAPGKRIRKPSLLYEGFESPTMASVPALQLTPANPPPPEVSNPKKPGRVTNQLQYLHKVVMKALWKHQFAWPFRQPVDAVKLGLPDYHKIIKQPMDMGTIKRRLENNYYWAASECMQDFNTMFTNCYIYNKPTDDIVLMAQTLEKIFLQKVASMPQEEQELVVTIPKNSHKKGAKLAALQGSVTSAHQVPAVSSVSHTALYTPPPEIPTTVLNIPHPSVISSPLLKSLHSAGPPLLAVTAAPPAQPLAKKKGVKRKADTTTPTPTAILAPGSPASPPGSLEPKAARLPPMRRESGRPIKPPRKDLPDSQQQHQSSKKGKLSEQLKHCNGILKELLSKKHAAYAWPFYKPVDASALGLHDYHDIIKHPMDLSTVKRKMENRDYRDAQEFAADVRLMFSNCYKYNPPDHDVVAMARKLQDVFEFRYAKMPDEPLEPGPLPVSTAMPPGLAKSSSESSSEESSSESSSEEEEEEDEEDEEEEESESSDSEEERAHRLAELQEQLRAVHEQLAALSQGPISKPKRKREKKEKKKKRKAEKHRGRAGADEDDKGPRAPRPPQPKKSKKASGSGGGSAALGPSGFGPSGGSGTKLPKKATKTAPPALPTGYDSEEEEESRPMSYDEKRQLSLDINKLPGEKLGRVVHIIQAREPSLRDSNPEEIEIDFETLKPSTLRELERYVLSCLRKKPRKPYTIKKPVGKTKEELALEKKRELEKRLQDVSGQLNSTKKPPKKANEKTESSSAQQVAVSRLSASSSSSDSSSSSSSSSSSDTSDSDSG", "assay": "Inhibition of BRD2 (D1) (unknown origin) at 5 uM incubated for 30 mins using histone H4 peptide (1-21) K5/8/12/16Ac-biotin by alpha screen assay", "conditions": "not given"}
{"smiles": "COc1ccc(-c2ccsc2)cc1S(=O)(=O)NC1CCCC1", "inhibition": "inactive"}
{"smiles": "CC(=O)Nc1ccc(C)c(S(=O)(=O)NC2CCCC2)c1", "inhibition": "inactive"}
{"smiles": "COc1ccc(-c2cccnc2)cc1S(=O)(=O)NC1CCCC1", "inhibition": "inactive"}
{"smiles": "Cc1ccc(NS(C)(=O)=O)cc1S(=O)(=O)NC1CCCC1", "inhibition": "inactive"}
{"smiles": "COc1ccc(-c2ccncc2)cc1S(=O)(=O)NC1CCCC1", "inhibition": "inactive"}
{"smiles": "COc1ccc(-c2cccc(NC(C)=O)c2)cc1S(=O)(=O)NC1CCCC1", "inhibition": "inactive"}
{"smiles": "COc1ccc(-c2ccc(N)nc2)cc1S(=O)(=O)NC1CCCC1", "inhibition": "inactive"}
{"smiles": "Cc1ccc(-c2nnn(C)n2)cc1S(=O)(=O)NC1CCCC1", "inhibition": "inactive"}
{"smiles": "COc1ccc(-c2ccsc2C)cc1S(=O)(=O)NC1CCCC1", "inhibition": "inactive"}
{"smiles": "COc1ccc(-c2c(C)nn(C)c2C)cc1S(=O)(=O)NC1CCCC1", "inhibition": "inactive"}
{"smiles": "COc1ccc(-c2ccc(N)cc2C)cc1S(=O)(=O)NC1CCCC1", "inhibition": "inactive"}
{"smiles": "Cc1ccc(-c2nnnn2C)cc1S(=O)(=O)NC1CCCC1", "inhibition": "inactive"}
{"smiles": "CC(=O)NCc1ccc(C)c(S(=O)(=O)NC2CCCC2)c1", "inhibition": "inactive"}
{"smiles": "COc1ccc(-c2cn[nH]c2)cc1S(=O)(=O)NC1CCCC1", "inhibition": "inactive"}
{"smiles": "COc1ccc(-c2cn(C)nn2)cc1S(=O)(=O)NC1CCCC1", "inhibition": "inactive"}
{"smiles": "COc1ccc(-c2ccccc2NS(C)(=O)=O)cc1S(=O)(=O)NC1CCCC1", "inhibition": "inactive"}
{"system": "not listed separately", "assay": "Intrinsic clearance in mouse liver microsomes", "assay_type": "ADME", "conditions": "read-out: CLH", "units": {"microsomal CLint": "µL/min/mg"}}
{"smiles": "Cc1sc2c(c1C)C(c1ccc(Cl)cc1)=N[C@@H](CC(=O)OC(C)(C)C)c1nnc(C)n1-2", "microsomal CLint": 166}
{"system": "not listed separately", "assay": "Degradation half-life in mouse liver microsomes", "assay_type": "ADME", "conditions": "not given", "units": {"half-life": "min"}}
{"smiles": "Cc1sc2c(c1C)C(c1ccc(Cl)cc1)=N[C@@H](CC(=O)OC(C)(C)C)c1nnc(C)n1-2", "half-life": 7}
{"system": "not listed separately", "assay": "Intrinsic clearance in rat liver microsomes", "assay_type": "ADME", "conditions": "read-out: CLH", "units": {"microsomal CLint": "µL/min/mg"}}
{"smiles": "Cc1sc2c(c1C)C(c1ccc(Cl)cc1)=N[C@@H](CC(=O)OC(C)(C)C)c1nnc(C)n1-2", "microsomal CLint": 129}
